Assay [1] has as its target T1, GLYT1 (Mus musculus, UniProt P28571).
T1 construct: gene Slc6a9
T1 sequence (P28571 1-692): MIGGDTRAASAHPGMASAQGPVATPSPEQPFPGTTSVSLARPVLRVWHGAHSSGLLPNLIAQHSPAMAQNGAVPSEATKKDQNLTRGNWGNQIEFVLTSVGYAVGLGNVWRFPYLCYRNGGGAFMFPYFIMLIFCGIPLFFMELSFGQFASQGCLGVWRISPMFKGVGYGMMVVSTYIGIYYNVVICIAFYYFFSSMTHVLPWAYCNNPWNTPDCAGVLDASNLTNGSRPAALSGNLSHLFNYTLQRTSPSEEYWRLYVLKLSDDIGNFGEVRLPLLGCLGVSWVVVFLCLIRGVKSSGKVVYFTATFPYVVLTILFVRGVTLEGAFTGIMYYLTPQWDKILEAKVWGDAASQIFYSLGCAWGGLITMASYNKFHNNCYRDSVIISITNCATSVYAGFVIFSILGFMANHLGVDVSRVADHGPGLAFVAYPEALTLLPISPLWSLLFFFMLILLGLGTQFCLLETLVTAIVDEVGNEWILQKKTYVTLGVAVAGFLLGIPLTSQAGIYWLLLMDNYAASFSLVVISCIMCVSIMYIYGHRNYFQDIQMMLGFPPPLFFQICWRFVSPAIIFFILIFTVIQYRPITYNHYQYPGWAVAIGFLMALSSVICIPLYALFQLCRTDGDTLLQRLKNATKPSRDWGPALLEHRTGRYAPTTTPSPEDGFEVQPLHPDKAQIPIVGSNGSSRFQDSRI
The assay can be described thus: ex vivo 3H-glycine uptake by peripheral blood cells of orally dosed mice vs free plasma concentration.

The target in assay [2] is T2, GLYT1 (Rattus norvegicus, UniProt P28572).
T2 construct: gene Slc6a9
T2 sequence (P28572 1-638): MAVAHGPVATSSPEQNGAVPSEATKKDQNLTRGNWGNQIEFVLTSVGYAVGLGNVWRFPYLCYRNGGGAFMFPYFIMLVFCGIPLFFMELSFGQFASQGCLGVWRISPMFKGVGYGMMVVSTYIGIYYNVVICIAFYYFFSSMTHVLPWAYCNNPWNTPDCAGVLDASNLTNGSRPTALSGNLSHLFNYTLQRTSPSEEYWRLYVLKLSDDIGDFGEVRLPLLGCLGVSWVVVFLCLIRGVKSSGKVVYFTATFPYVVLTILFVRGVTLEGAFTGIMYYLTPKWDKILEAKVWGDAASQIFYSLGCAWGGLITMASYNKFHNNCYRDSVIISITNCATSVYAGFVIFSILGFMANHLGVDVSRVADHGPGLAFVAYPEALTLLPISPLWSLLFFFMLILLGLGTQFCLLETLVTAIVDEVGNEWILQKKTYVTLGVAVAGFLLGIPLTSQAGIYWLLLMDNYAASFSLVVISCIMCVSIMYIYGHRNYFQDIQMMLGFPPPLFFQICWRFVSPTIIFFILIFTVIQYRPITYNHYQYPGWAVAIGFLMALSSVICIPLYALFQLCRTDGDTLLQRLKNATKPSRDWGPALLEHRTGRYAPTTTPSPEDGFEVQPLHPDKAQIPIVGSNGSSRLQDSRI
As to the kind of experiment: ex vivo 3H-glycine uptake by peripheral blood cells of orally dosed rats vs free plasma concentration.

By EC50 is commonly meant the concentration at which the effect is half-maximal.

On to `C[C@H](Oc1ccc(S(C)(=O)=O)cc1C(=O)N1CCN(c2ncc(C(F)(F)F)cc2F)CC1)C(F)(F)F` [bitopertin, [4-(3-fluoro-5-trifluoromethylpyridin-2-yl)piperazin-1-yl][5-methanesulfonyl-2-((S)-2,2,2-trifluoro-1-methylethoxy)phenyl]methanone], for which the figures for the 50% effective concentration (EC50) on GLYT1 [1] and on GLYT1 [2] were 1.2 nM and 2 nM, respectively.
